Measured values reported in patent US20240417410A1, “TRICYCLIC COMPOUNDS FOR THE TREATMENT OF CANCER” (Hoffmann-La Roche Inc., priority 2023, published 2024).

Legend:
AGS cells (KRAS G12D) = assay: Cell viability assay (Cell Counting Kit-8, 3-day); type: cell-based, human; conditions: Homo sapiens, 72 h, 72 hrs incubation
Procedure: (§1) The purpose of this cellular assay was to determine the effects of test compounds on the proliferation of human cancer cell lines NCI-H358 (ATCC-CRL5807) cells, AGS (ATCC-CRL-1739) cells, SW620 (ATCC-CCL-227) over a 3-day treatment period by quantifying the amount of NADPH present at endpoint using Cell Counting Kit-8.
(§2) Cells were seeded at 5,000 cells/well (NCI-H358), 2,000 cells/well (AGS) 2,000 cells/well (SW620) in 96-well assay plates (Corning-3699) and incubated overnight. On the day of the assay, diluted compounds were then added in a final concentration of 0.5% DMSO. After 72 hrs incubation, a tenth of the volume of cell counting kit 8 (Dnjindo-CK04) was added into each well. Read the signal (OD450 minus OD650) using EnVision after 2 hrs incubation. IC50 was determined by fitting a 4-parameter sigmoidal concentration response model.

[1] = test system: NCI-H358 cells (KRAS G12C); assay: Cell viability assay (Cell Counting Kit-8, 3-day); type: cell-based, human; conditions: Homo sapiens, NCI-H358, 72 h, NCI-H358, 72 hrs incubation
Procedure: as §1, §2

SW620 cells (KRAS G12V) = assay: Cell viability assay (Cell Counting Kit-8, 3-day); type: cell-based, human; conditions: Homo sapiens, SW-620; SW620, 72 hrs incubation
Procedure: as §1, §2

[2] = test system: phosphorylation of ERK, KRAS G12C in NCI-H358 cells; assay: pERK inhibition assay; type: cell-based; conditions: Homo sapiens, NCI-H358, 4 h
Procedure: (§3) This assay is to measure the ability of test compounds in inhibiting the phosphorylation of ERK, the downstream signaling of KRAS G12C in NCI-H358 cells, KRAS G12D in AGS cells, and KRAS G12V in SW620. NCI-H358 (ATCC-CRL5807) cells, AGS (ATCC-CRL-1739) cells, SW620 (ATCC-CCL-227) cells were all grown and maintained using RPMI-1640 medium (Thermo Fisher Scientific) with 10% fetal bovine serum and 1% penicillin/streptomycin. On the day prior to compound addition, cells were plated in tissue culture-treated 96 well plates (Corning-3699) at a density of 30,000 cell/well, 20,000 cell/well, 30,000 cell/well for NCI-H358, AGS and SW620 respectively, and allowed for attachment overnight. Diluted compounds were then added in a final concentration of 0.5% DMSO. After 4 hours of incubation, the medium was removed, 100 μL of 4% formaldehyde was added, and the assay plates were incubated at room temperature for 20 minutes. The plates were then washed once with phosphate buffered saline (PBS), and permeabilized with 100 μL of chilled methanol for 10 minutes. Non-specific antibody binding to the plates was blocked using 50 μL 1X BSA blocking buffer (Thermo-37520, 10-fold dilution by Phosphate-Buffered Saline Tween (PBST) for at least 1 hour at room temperature.
(§4) The amount of phosphor-ERK was determined using an antibody specific for phosphorylated form of ERK. Primary antibody (PERK, CST-4370, Cell Signaling Technology) was diluted 1:300 in blocking buffer, with 50 μL aliquoted to each well, and incubated overnight at 4° C. Cells was washed five times for 5 minutes with PBST. Secondary antibody (HRP-linked anti-rabbit IgG, CST-7074, Cell Signaling Technology) was diluted 1:1000 in blocking buffer, and 50 μL was added to each well and incubated 1-2 hrs at room temperature. Cells was washed […] for 5 minutes with PBST, 100 μL TMB ELISA substrate (abcam-ab171523) were added and gently shake for 20 minutes. 50 μL stop solution (abcam-ab 171529) were added, and then read the signal (OD450) by EnVision.
(§5) IC50 was determined by fitting a 4-parameter sigmoidal concentration response model.

[3] = test system: phosphorylation of ERK, KRAS G12D in AGS cells; assay: pERK inhibition assay; type: cell-based; conditions: Homo sapiens, AGS, 4 h
Procedure: as §3, §4, §5

[4] = test system: phosphorylation of ERK, KRAS G12V in SW620; assay: pERK inhibition assay; type: cell-based; conditions: Homo sapiens, SW-620, 4 h, SW620 cells
Procedure: as §3, §4, §5

Structure (SMILES) | IC50 (AGS cells (KRAS G12D)) [nM] | IC50 [1] [nM] | IC50 (SW620 cells (KRAS G12V)) [nM] | IC50 [2] [nM] | IC50 [3] [nM] | IC50 [4] [nM]
CO[C@@H](C)c1ncc(N2CCN(C)CC2)cc1-c1c2c3cc(cc4c3n1CCC4)-c1csc(n1)C[C@H](NC(=O)[C@@H]1C[C@H]1c1ccncc1)C(=O)N1CCC[C@H](N1)C(=O)OCC(C)(C)C2 [Example 58, (1R,2R)-N-[(7S,13S)-(20M)-20-[2-[(1S)-1-methoxyethyl]-5-(4-methylpiperazin-1-yl)-3-pyridyl]-17,17-dimethyl-8,14-dioxo-15-oxa-4-thia-9,21,30,31-tetrazahexacyclo[23.3.1.1^2,5.1^9,13.0^19,27.0^21,26]hentriaconta-1 (28),2,5 (31),19,25 (29),26-hexaen-7-yl]-2-(4-pyridyl)cyclopropanecarboxamide] | 38.5 | 7.6 | 2 | 6.4 | 20.5 | 4.9
CO[C@@H](C)c1ncc(N2CCOCC2)cc1-c1c2c3cc(cc4c3n1CC(F)(F)C4)-c1csc(n1)C[C@H](NC(=O)[C@H]1C[C@@H]1c1ccccc1)C(=O)N1CCC[C@H](N1)C(=O)OCC(C)(C)C2 (atropisomer, axis not shown; (M)) [Example 79, (1S,2S)-N-[(7S,13S)-23,23-difluoro-(20M)-20-[2-[(1S)-1-methoxyethyl]-5-morpholino-3-pyridyl]-17,17-dimethyl-8,14-dioxo-15-oxa-4-thia-9,21,30,31-tetrazahexacyclo[23.3.1.1^2,5.1^9,13.0^19,27.0^21,26]hentriaconta-1 (28),2,5 (31),19,25 (29),26-hexaen-7-yl]-2-phenyl-cyclopropanecarboxamide] | 57 | 13.2 | 3.2 | 1.6 | 16.2 | 1.4
CO[C@@H](C)c1ncc(N2CCOCC2)cc1-c1c2c3cc(cc4c3n1CC(C)(C)O4)-c1csc(n1)C[C@H](NC(=O)[C@H]1C[C@@H]1C)C(=O)N1CCC[C@H](N1)C(=O)OCC(C)(C)C2 (atropisomer, axis not shown; (M)) [Example 38, (1S,2S)-N-[(7S,13S)-(20M)-20-[2-[(1S)-1-methoxyethyl]-5-morpholino-3-pyridyl]-17,17,23,23-tetramethyl-8,14-dioxo-15,24-dioxa-4-thia-9,21,30,31-tetrazahexacyclo[23.3.1.1^2,5.1^9,13.0^19,27.0^21,26]hentriaconta-1 (28),2,5 (31),19,25 (29),26-hexaen-7-yl]-2-methyl-cyclopropanecarboxamide] | 120 | 89.4 | 18 | 8 | 59.4 | 5.5
CO[C@@H](C)c1ncc(N2CCN(C)CC2)cc1-c1c2c3cc(cc4c3n1CC(F)(F)C4)-c1csc(n1)C[C@H](NC(=O)[C@H]1C[C@@H]1c1ccccc1)C(=O)N1CCC[C@H](N1)C(=O)OCC(C)(C)C2 (atropisomer, axis not shown; (M)) [Example 78] | 30.6 | 9.8 | 2.3 | 2 | 10.1 | 1.1
CO[C@@H](C)c1ncc(N2CCN(C)CC2)cc1-c1c2c3cc(cc4c3n1CCC4)-c1csc(n1)C[C@H](NC(=O)[C@H]1C[C@@H]1c1ncccn1)C(=O)N1CCC[C@H](N1)C(=O)OCC(C)(C)C2 [Example 80, (1S,2S)-N-[(7S,13S)-(20M)-20-[2-[(1S)-1-methoxyethyl]-5-(4-methylpiperazin-1-yl)-3-pyridyl]-17,17-dimethyl-8,14-dioxo-15-oxa-4-thia-9,21,30,31-tetrazahexacyclo[23.3.1.1^2,5.1^9,13.0^19,27.0^21,26]hentriaconta-1 (28),2,5 (31), 19,25 (29),26-hexaen-7-yl]-2-pyrimidin-2-yl-cyclopropanecarboxamide] |  |  |  | 5.1 | 47.4 | 4.2
CO[C@@H](C)c1ncc(N2CCN(CC(F)(F)F)CC2)cc1-c1c2c3cc(cc4c3n1CC(F)(F)C4)-c1csc(n1)C[C@H](NC(=O)[C@H]1C[C@@H]1C)C(=O)N1CCC[C@H](N1)C(=O)OCC(C)(C)C2 (atropisomer, axis not shown; (M)) [Example 67, (1S,2S)-N-[(7S,13S)-23,23-difluoro-(20M)-20-[2-[(1S)-1-methoxyethyl]-5-[4-(2,2,2-trifluoroethyl)piperazin-1-yl]-3-pyridyl]-17,17-dimethyl-8,14-dioxo-15-oxa-4-thia-9,21,30,31-tetrazahexacyclo[23.3.1.1^2,5.1^9,13.0^19,27.0^21,26]hentriaconta-1 (28),2,5 (31),19,25 (29),26-hexaen-7-yl]-2-methyl-cyclopropanecarboxamide] |  |  |  | 2.4 | 31.8 | 3.2

Continued by falling IC50 [2], values first:

IC50 (AGS cells (KRAS G12D)) [nM] | IC50 [1] [nM] | IC50 (SW620 cells (KRAS G12V)) [nM] | IC50 [2] [nM] | IC50 [3] [nM] | IC50 [4] [nM] | Structure (SMILES)
33.9 | 16.8 | 3.1 | 2.1 | 9.1 | 1.4 | CO[C@@H](C)c1ncc(N2CCN(CC(F)(F)F)CC2)cc1-c1c2c3cc(cc4c3n1CCO4)-c1csc(n1)C[C@H](NC(=O)[C@H]1C[C@@H]1c1ccccc1)C(=O)N1CCC[C@H](N1)C(=O)OCC(C)(C)C2 (atropisomer, axis not shown; (M)) [Example 44, (1S,2S)-N-[(7S,13S)-(20M)-20-[2-[(1S)-1-methoxyethyl]-5-[4-(2,2,2-trifluoroethyl)piperazin-1-yl]-3-pyridyl]-17,17-dimethyl-8,14-dioxo-15,24-dioxa-4-thia-9,21,30,31-tetrazahexacyclo[23.3.1.1^2,5.1^9,13.0^19,27.0^21,26]hentriaconta-1 (29),2,5 (31),19,25,27-hexaen-7-yl]-2-phenyl-cyclopropanecarboxamide]
98.7 | 17.1 | 3.8 | 1.9 | 20.7 | 2.7 | CO[C@@H](C)c1ncc(N2CCN(C)CC2)cc1-c1c2c3cc(cc4c3n1CCC4)-c1csc(n1)C[C@H](NC(=O)C1(C)CC1(F)F)C(=O)N1CCC[C@H](N1)C(=O)OCC(C)(C)C2 (stereo partly drawn) [Example 19, 2,2-difluoro-N-[(7S,13S)-(20M)-20-[2-[(1S)-1-methoxyethyl]-5-(4-methylpiperazin-1-yl)-3-pyridyl]-17,17-dimethyl-8,14-dioxo-15-oxa-4-thia-9,21,30,31-tetrazahexacyclo[23.3.1.1^2,5.1^9,13.0^19,27.0^21,26]hentriaconta-1 (28),2,5 (31),19,25 (29),26-hexaen-7-yl]-1-methyl-cyclopropanecarboxamide]
32.2 | 8.1 | 2.4 | 0.9 | 9.1 | 1 | CO[C@@H](C)c1ncc(N2CCOCC2)cc1-c1c2c3cc(cc4c3n1CCC4)-c1csc(n1)C[C@H](NC(=O)[C@H]1C[C@@H]1c1ccccc1)C(=O)N1CCC[C@H](N1)C(=O)OCC(C)(C)C2 (atropisomer, axis not shown; (M)) [Example 46, (1S,2S)-N-[(7S,13S)-(20M)-20-[2-[(1S)-1-methoxyethyl]-5-morpholino-3-pyridyl]-17,17-dimethyl-8,14-dioxo-15-oxa-4-thia-9,21,30,31-tetrazahexacyclo[23.3.1.1^2,5.1^9,13.0^19,27.0^21,26]hentriaconta-1 (29),2,5 (31), 19,25,27-hexaen-7-yl]-2-phenyl-cyclopropanecarboxamide]
